According to the NIST ThermoML archive (doi:10.1021/acs.jced.8b00786):

Details: Liquid; for viscosity: Capillary tube (Ostwald / Ubbelohde) method; for mass density: Vibrating tube method

CC(C)CCCC(C)CCCC(C)CCCCC(C)CCCC(C)CCCC(C)C (stereo not given) [2,6,10,15,19,23-hexamethyltetracosane]
Details	mass density [kg/m3]	viscosity [mPa·s]
313.15 K, 5700 kPa	798.1	16.52
313.15 K, 13500 kPa	804.3	19.37
313.15 K, 23500 kPa	811.4	23.38
313.15 K, 45700 kPa	822.6	35.26
313.15 K, 68000 kPa	832.5	52.85
338.15 K, 7900 kPa	783.2	7.82
338.15 K, 11000 kPa	785.2	8.05
338.15 K, 22500 kPa	793.3	10.19
338.15 K, 45600 kPa	807.5	14.4
338.15 K, 60500 kPa	814.6	18.07
338.15 K, 76300 kPa	820.5	22.98
363.15 K, 10600 kPa	769.9	4.5
363.15 K, 21500 kPa	777.9	5.38
363.15 K, 42500 kPa	791.1	7.21
363.15 K, 63700 kPa	802.4	9.47
